# In patent EP3858439A1 (priority 2020, dated 2021):
# pKi: −log10 of the molar value. Counter-ions that a name gives are not always drawn.
# Molecular target: T1, human µ-opioid receptor (Homo sapiens, UniProt P35372)
# T1 construct: expressed in transfected cells; host or cells: CHO-K1
# Assay: Binding assay to human µ-opioid receptor ([3H]-DAMGO displacement)
# Conditions: not given
# Method: Binding assay to human µ-opioid receptor
# Transfected CHO-K1 cell membranes (20 µg) were incubated with [^3H]-DAMGO (1 nM) in assay buffer containing Tris-HCl 50 mM, MgCl2 5 mM at pH 7.4.
# Plates were incubated at 27 °C for 60 min. After the incubation period, the reaction mixture was then transferred to MultiScreen HTS, FC plates (Millipore), filtered and plates were washed 3 times with ice-cold 10 mM Tris-HCl (pH 7.4).
# Filters were dried and counted at approximately 40% efficiency in a MicroBeta scintillation counter (Perkin-Elmer) using EcoScint liquid scintillation cocktail.
# T1 sequence (P35372 whole entry): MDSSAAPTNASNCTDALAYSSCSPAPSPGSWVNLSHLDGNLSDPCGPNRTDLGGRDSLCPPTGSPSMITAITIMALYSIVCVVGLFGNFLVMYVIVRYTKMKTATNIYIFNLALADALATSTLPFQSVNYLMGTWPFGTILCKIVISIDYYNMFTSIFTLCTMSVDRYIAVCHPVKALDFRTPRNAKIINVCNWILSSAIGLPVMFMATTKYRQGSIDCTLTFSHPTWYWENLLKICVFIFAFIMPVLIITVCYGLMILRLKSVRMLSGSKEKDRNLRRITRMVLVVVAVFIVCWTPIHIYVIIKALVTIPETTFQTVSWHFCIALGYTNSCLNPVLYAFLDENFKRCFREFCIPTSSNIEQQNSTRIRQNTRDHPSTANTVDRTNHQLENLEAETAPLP
row,Structure (SMILES),pKi
1,"CNCC(Cc1ccccc1F)C(=O)N1CCC(c2ccccc2)(N(C)C)CC1 (stereo not shown) [Example 57, 1-(4-(dimethylamino)-4-phenylpiperidin-1-yl)-2-(2-fluorobenzyl)-3-(methylamino)propan-1-one dihydrochloride]",> 7.00
2,"CN(C)C1(c2ccccc2)CCN(C(=O)C(CN)Cc2ccccc2)CC1 (stereo not shown) [Example 28, 3-amino-2-benzyl-1-(4-(dimethylamino)-4-phenylpiperidin-1-yl)propan-1-one dihydrochloride]",> 7.00
3,"CNCC(Cc1ccccc1)C(=O)N1CCC(c2cccc(O)c2)(N(C)C)CC1 (stereo not shown) [Example 34, 2-benzyl-1-(4-(dimethylamino)-4-(3-hydroxyphenyl)piperidin-1-yl)-3-(methylamino)propan-1-one dihydrochloride]",> 7.00
4,"CCNCC(Cc1ccccc1)C(=O)N1CCC(c2ccccc2)(N(C)C)CC1 (stereo not shown) [Example 30, 2-benzyl-1-(4-(dimethylamino)-4-phenylpiperidin-1-yl)-3-(ethylamino)propan-1-one dihydrochloride]",> 7.00
5,"CN(C)C1(c2ccccc2)CCN(C(=O)[C@@H](CN)[C@H]2CCCc3ccccc32)CC1 (racemic) [Example 78, (RS)-3-amino-1-(4-(dimethylamino)-4-phenylpiperidin-1-yl)-2-((RS)-1,2,3,4-tetrahydronaphthalen-1-yl)propan-1-one]",> 7.00
6,"CNC1(c2ccccc2)CCN(C(=O)[C@H](CN)[C@@H](C)c2ccccc2)CC1 [Example 9, (2S,3R)-2-(aminomethyl)-1-(4-(methylamino)-4-phenylpiperidin-1-yl)-3-phenylbutan-1-one]",> 7.00
7,"CN(C)C1(c2ccccc2)CCN(C(=O)C(CNCc2ccccc2)Cc2ccccc2)CC1 (stereo not shown) [Example 76, 2-Benzyl-3-(benzylamino)-1-(4-(dimethylamino)-4-phenylpiperidin-1-yl)propan-1-one dihydrochloride]",> 7.00
8,"CNCC(Cc1ccccc1)C(=O)N1CCC(NC)(c2cccc(O)c2)CC1 (stereo not shown) [Example 44, 2-benzyl-1-(4-(3-hydroxyphenyl)-4-(methylamino)piperidin-1-yl)-3-(methylamino)propan-1-one dihydrochloride]",> 7.00
9,"CNC[C@@H](C(=O)N1CCC(c2ccccc2)(N(C)C)CC1)[C@H](C)c1ccccc1 [Example 85, (2S,3S)-1-(4-(Dimethylamino)-4-phenylpiperidin-1-yl)-2-((methylamino)methyl)-3-phenylbutan-1-one]",6.30 to 7.00
10,"CN(C)C1(c2ccccc2)CCN(C(=O)[C@@H](CN)[C@@H]2CCCc3ccccc32)CC1 (racemic) [Example 77, (RS)-3-Amino-1-(4-(dimethylamino)-4-phenylpiperidin-1-yl)-2-((SR)-1,2,3,4-tetrahydronaphthalen-1-yl)propan-1-one]",> 7.00
11,"CNCC(Cc1ccccc1)C(=O)N1CCC(c2ccccc2)(N(C)C)CC1 (stereo not shown) [Example 70, 2-benzyl-1-(4-(dimethylamino)-4-phenylpiperidin-1-yl)-3-(methylamino)propan-1-one]",6.30 to 7.00
12,"CN(C)C1(c2ccccc2)CCN(C(=O)[C@H](CN)C(C)(C)c2ccccc2)CC1 [Example 5, (S)-2-(aminomethyl)-1-(4-(dimethylamino)-4-phenylpiperidin-1-yl)-3-methyl-3-phenylbutan-1-one]",> 7.00
13,"CNC[C@H](Cc1ccccc1)C(=O)N1CCC(c2ccccc2)(N(C)C)CC1 [Example 79, (S)-2-Benzyl-1-(4-(dimethylamino)-4-phenylpiperidin-1-yl)-3-(methylamino)propan-1-one dihydrochloride]",> 7.00

# Same assay, conditions: Table 2; transfected CHO-K1 cell membranes, [3H]-DAMGO 1 nM, 60 min at 27 °C; read-out: Binding µ
row,Structure (SMILES),pKi
1,"CNC[C@@H](C(=O)N1CCC(c2ccc(OC)cc2)(N(C)C)CC1)[C@@H](C)c1ccccc1 [Example 12, (2S,3R)-1-(4-(dimethylamino)-4-(4-methoxyphenyl)piperidin-1-yl)-2-((methylamino)methyl)-3-phenylbutan-1-one]",> 7.00
2,"CC[C@@H](c1ccccc1)[C@@H](CNC)C(=O)N1CCC(NC)(c2ccc(OC)cc2)CC1 [Example 22, (2S,3R)-1-(4-(4-methoxyphenyl)-4-(methylamino)piperidin-1-yl)-2-((methylamino)methyl)-3-phenylpentan-1-one dihydrochloride]",> 7.00
3,"CC[C@@H](c1ccccc1)[C@@H](CN)C(=O)N1CC(c2ccccc2)(N(C)C)C1 [Example 10, (2S,3R)-2-(aminomethyl)-1-(3-(dimethylamino)-3-phenylazetidin-1-yl)-3-phenylpentan-1-one]",< 6.30
4,"CC[C@@H](c1ccccc1)[C@@H](CNC)C(=O)N1CCC(NC)(c2ccc(F)cc2)CC1 [Example 65, (2S,3R)-1-(4-(4-fluorophenyl)-4-(methylamino)piperidin-1-yl)-2-((methylamino)methyl)-3-phenylpentan-1-one]",> 7.00
5,"CN(C)C1(c2cccc(O)c2)CCN(C(=O)C2NCCc3ccccc32)CC1 (stereo not shown) [Example 35, (4-(dimethylamino)-4-(3-hydroxyphenyl)piperidin-1-yl)(1,2,3,4-tetrahydroisoquinolin-1-yl)methanone dihydrochloride]",> 7.00
6,"CNC[C@@H](C(=O)N1CCC(c2cccc(O)c2)(N(C)C)CC1)[C@@H](C)c1ccccc1 [Example 16, (2S,3R)-1-(4-(dimethylamino)-4-(3-hydroxyphenyl)piperidin-1-yl)-2-((methylamino)methyl)-3-phenylbutan-1-one dihydrochloride]",> 7.00
7,"C[C@H](N)[C@H](Cc1ccccc1)C(=O)N1CCC(c2ccccc2)(N(C)C)CC1 [Example 48, (2S,3S)-3-amino-2-benzyl-1-(4-(dimethylamino)-4-phenylpiperidin-1-yl)butan-1-one dihydrochloride]",> 7.00
8,"CC[C@@H](c1cccc(F)c1)[C@@H](CN)C(=O)N1CCC(NC)(c2ccccc2)CC1 [Example 11, (2S,3R)-2-(aminomethyl)-3-(3-fluorophenyl)-1-(4-(methylamino)-4-phenylpiperidin-1-yl)pentan-1-one]",> 7.00
9,"CC[C@@H](c1ccccc1)[C@@H](CNC)C(=O)N1CCC(NC)(c2ccccc2)CC1 [Example 17, (2S,3R)-1-(4-(methylamino)-4-phenylpiperidin-1-yl)-2-((methylamino)methyl)-3-phenylpentan-1-one dihydrochloride]",> 7.00
10,"CC[C@@H](c1cccc(F)c1)[C@@H](CNC)C(=O)N1CCC(NC)(c2ccccc2)CC1 [Example 20, (2S,3R)-3-(3-fluorophenyl)-1-(4-(methylamino)-4-phenylpiperidin-1-yl)-2-((methylamino)methyl)pentan-1-one]",> 7.00
11,"CNCC(Cc1ccccc1)C(=O)N1CCC(c2cccc(OC)c2)(N(C)C)CC1 (stereo not shown) [Example 41, 2-benzyl-1-(4-(dimethylamino)-4-(3-methoxyphenyl)piperidin-1-yl)-3-(methylamino)propan-1-one dihydrochloride]",> 7.00
12,"CC[C@@H](c1ccccc1)[C@@H](CN)C(=O)N1CCC(NC)(c2ccccc2)CC1 [Example 6, (2S,3R)-2-(aminomethyl)-1-(4-(methylamino)-4-phenylpiperidin-1-yl)-3-phenylpentan-1-one dihydrochloride]",> 7.00
13,"CNC[C@@H](C(=O)N1CCC(c2cccc(F)c2)(N(C)C)CC1)[C@@H](C)c1ccccc1 [Example 3, (2S,3R)-1-(4-(dimethylamino)-4-(3-fluorophenyl)piperidin-1-yl)-2-((methylamino)methyl)-3-phenylbutan-1-one]",> 7.00
14,"CNC[C@@H](C(=O)N1CCC(c2ccccc2)(N(C)C)CC1)[C@@H](C)c1cccc(F)c1 [Example 15, (2S,3R)-1-(4-(dimethylamino)-4-phenylpiperidin-1-yl)-3-(3-fluorophenyl)-2-((methylamino)methyl)butan-1-one]",> 7.00
15,"CNC[C@@H](C(=O)N1CCC(c2ccccc2)(N(C)C)CC1)[C@@H](C)c1ccccc1F [Example 14, (2S,3R)-1-(4-(dimethylamino)-4-phenylpiperidin-1-yl)-3-(2-fluorophenyl)-2-((methylamino)methyl)butan-1-one dihydrochloride]",6.30 to 7.00
16,"CNC[C@H](C(=O)N1CCC(c2ccccc2)(N(C)C)CC1)[C@@H](C)c1ccccc1 [Example 86, (2R,3R)-1-(4-(dimethylamino)-4-phenylpiperidin-1-yl)-2-((methylamino)methyl)-3-phenylbutan-1-one]",> 7.00
17,"C[C@@H](c1ccccc1)[C@@H](CN)C(=O)N1CCC(c2ccccc2)(N(C)C)CC1 [Example 7, (2S,3R)-2-(aminomethyl)-1-(4-(dimethylamino)-4-phenylpiperidin-1-yl)-3-phenylbutan-1-one dihydrochloride]",> 7.00
18,"CC[C@@H](c1cccc(Cl)c1)[C@@H](CNC)C(=O)N1CCC(NC)(c2ccc(F)cc2)CC1 [Example 69, (2S,3R)-3-(3-chlorophenyl)-1-(4-(4-fluorophenyl)-4-(methylamino)piperidin-1-yl)-2-((methylamino)methyl)pentan-1-one]",> 7.00
19,"CC[C@@H](c1cccc(Cl)c1)[C@@H](CN)C(=O)N1CCC(c2ccccc2)(N(C)C)CC1 [Example 66, (2S,3R)-2-(aminomethyl)-3-(3-chlorophenyl)-1-(4-(dimethylamino)-4-phenylpiperidin-1-yl)pentan-1-one]",> 7.00
20,"CNC[C@@H](C(=O)N1CCC(NC)(c2ccccc2)CC1)[C@@H](C)c1ccccc1 [Example 4, (2S,3R)-1-(4-(methylamino)-4-phenylpiperidin-1-yl)-2-((methylamino)methyl)-3-phenylbutan-1-one]",6.30 to 7.00
21,"CC[C@@H](c1ccccc1)[C@@H](CNC)C(=O)N1CCC(c2ccccc2)(N(C)C)CC1 [Example 13, (2S,3R)-1-(4-(dimethylamino)-4-phenylpiperidin-1-yl)-2-((methylamino)methyl)-3-phenylpentan-1-one dihydrochloride]",> 7.00
